The values that follow are results of earlier work, collected in patent US20220142904A1, “A METHOD OF COLORING KERATINOUS MATERIAL COMPRISING THE USE OF AN ORGANOSILICON COMPOUND, A COLORING COMPOUND, A SEALING REAGENT, AND A MIXTURE OF SILICONES” (Henkel AG & Co. KGaA, priority 2019, published 2022).

For this data set the following is noted: for solubility in water: 25° C.

For `O=C([O-])c1c(Cl)c(Cl)c(Cl)c(Cl)c1-c1c2c(Br)cc(=O)c(Br)c-2oc2c(Br)c(O)cc(Br)c12.O=C([O-])c1c(Cl)c(Cl)c(Cl)c(Cl)c1-c1c2c(Br)cc(=O)c(Br)c-2oc2c(Br)c(O)cc(Br)c12.[Na+].[Na+]` [Acid Red 92, disodium salt of 3,4,5,6-tetrachloro-2-(1,4,5,8-tetrabromo-6-hydroxy-3-oxoxanthen-9-yl)benzoic acid], the solubility in water entry is listed as “greater than 10 g/L”.

On to “sodium salts of mono- and disulfonic acids of 2-(2-quinolyl)-1H-indene-1,3(2H)-dione [Acid Yellow 3]”, for which the solubility in water was 20 mg/mL.

For the compound `O=S(=O)([O-])c1ccc(N=Nc2c(O)ccc3ccccc23)cc1.[Na+]` [Acid Orange 7, sodium salt of 4-[(2-hydroxy-1-naphthyl)azo]benzene sulphonate], the solubility in water entry is given as “more than 7 g/L”.

`Nc1cc(S(=O)(=O)[O-])cc2cc(S(=O)(=O)[O-])c(N=Nc3ccccc3)c(O)c12.[Na+].[Na+]` [Acid Red 33, disodium salt of 5-amino-4-hydroxy-3-(phenylazo)-naphthalene-2,7-disulphonate]: the solubility in water was 2.5 mg/mL.

For `O=C([O-])C1=NN(c2ccc(S(=O)(=O)[O-])cc2)C(=O)C1N=Nc1ccc(S(=O)(=O)[O-])cc1.[Na+].[Na+].[Na+]` (centres unmarked) [Acid Yellow 23, trisodium salt of 4,5-dihydro-5-oxo-1-(4-sulfophenyl)-4-((4-sulfophenyl)azo)-1H-pyrazole-3-carboxylic acid], under “water at 25° C.”, the “solubility in water (in words)” value is reported as “highly soluble”.
